Source: patent US9211310B2, “Use of a Chinese medicine composition in preparing medicaments for treating secondary prevention of myocardial infarction” (TASLY PHARMACEUTICAL GROUP CO., LTD, priority 2010, dated 2015)

Test system: patients after acute myocardial infarction
Experiment: Life quality, Seattle Angina Questionnaire (SAQ), same clinical trial
Type: in vivo, human
Settings: PP; 3 months after treatment
Excerpt: 3508 patients who were in accordance with the diagnostic standards of AMI for 28 days to 2 years and differentiated as Qi deficiency and blood stagnation syndrome by TCM were studied. 0.5 g Chinese medicine composition prepared by the method of EXAMPLE 1 (Coded as QSYQ) was administrated half an hour after meal, 3 times per day.
There were 19 questions in the Seattle angina questionnaire (SAQ), including 5 parts: physical limitation (PL), anginal stability (AS), anginal frequency (AF), treatment satisfaction (TS) and disease perception (DP). After being given necessary explanation by doctors, the questions were answered independently by patients.
They included the overall survival time, angina pectoris score, TCM symptom score and life quality score, where angina pectoris score, TCM symptom score and life quality score were evaluated at randomization, in 1st, 3rd, 6th, 9th, 12th month after treatment and 18th month after follow-up.
All evaluation results of SAQ were described during the period of observation, and Wilcoxon rank sum test was used for inter-group comparison.
The evaluation results in the SAQ were depicted in different observations, and inter-group comparison was tested by Wilcoxon Rank-sum test.

Question: With `CC(=O)Oc1ccccc1C(=O)O` [Control group, aspirine] as the molecule, how does the “11th question: Often worried, patients (%)” value read?
Answer: The value was “(19.03%)”.

Question: And the “11th question: Seldom worried, patients (%)” value?
Answer: Its value is “(30.12%)”.

Question: What about the “SAQ 4th question, 1-2 times per week: % of patients” value of the same molecule?
Answer: Its value is “(17.09%)”.

Question: What about the “SAQ 4th question, 1-2 times per week: number of patients” value of the same molecule?
Answer: The value was 251.

Question: What about the “SAQ 4th question, 1-3 times per day: % of patients” value of the same molecule?
Answer: Its value is “(5.31%)”.

Question: And the “SAQ 4th question, 1-3 times per day: number of patients” value?
Answer: Its value is 78.

Question: What about the “SAQ 4th question, <1 time per week: % of patients” value of the same molecule?
Answer: Its value is “(10.35%)”.

Question: And the “SAQ 4th question, <1 time per week: number of patients” value?
Answer: The value was 152.

Question: And the “SAQ 4th question, Not used: % of patients” value?
Answer: Its value is “(56.71%)”.

Question: And the “SAQ 4th question, Not used: number of patients” value?
Answer: The value was 833.

Question: What about the “SAQ 4th question, ≧3 times per week: % of patients” value of the same molecule?
Answer: Its value is “(10.55%)”.

Question: And the “SAQ 4th question, ≧3 times per week: number of patients” value?
Answer: Its value is 155.

Question: And the “SAQ 4th question, ≧4 times per day: % of patients” value?
Answer: Its value is “(0.00%)”.

Question: And the “SAQ 4th question, ≧4 times per day: number of patients” value?
Answer: The value was 0.

Question: What about the “SAQ 5th question, Few: % of patients” value of the same molecule?
Answer: Its value is “(24.57%)”.

Question: What about the “SAQ 5th question, Few: number of patients” value of the same molecule?
Answer: The value was 361.

Question: And the “SAQ 5th question, Mild: % of patients” value?
Answer: The value was “(26.14%)”.

Question: What about the “SAQ 5th question, Mild: number of patients” value of the same molecule?
Answer: The value was 384.

Question: What about the “SAQ 5th question, Moderate: % of patients” value of the same molecule?
Answer: Its value is “(16.13%)”.

Question: What about the “SAQ 5th question, Moderate: number of patients” value of the same molecule?
Answer: The value was 237.

Question: What about the “SAQ 5th question, None: % of patients” value of the same molecule?
Answer: The value was “(27.16%)”.

Question: And the “SAQ 5th question, None: number of patients” value?
Answer: Its value is 399.

Question: What about the “SAQ 5th question, Not medicated by doctors: % of patients” value of the same molecule?
Answer: The value was “(4.56%)”.

Question: What about the “SAQ 5th question, Not medicated by doctors: number of patients” value of the same molecule?
Answer: The value was 67.

Question: And the “SAQ 5th question, Severe: % of patients” value?
Answer: The value was “(1.43%)”.

Question: And the “SAQ 5th question, Severe: number of patients” value?
Answer: The value was 21.

Question: And the “SAQ 6th question, Dissatisfied: % of patients” value?
Answer: Its value is “(0.07%)”.

Question: And the “SAQ 6th question, Dissatisfied: number of patients” value?
Answer: The value was 1.

Question: What about the “SAQ 6th question, Highly satisfied: % of patients” value of the same molecule?
Answer: Its value is “(20.04%)”.

Question: And the “SAQ 6th question, Highly satisfied: number of patients” value?
Answer: The value was 295.

Question: And the “SAQ 6th question, Mostly dissatisfied: % of patients” value?
Answer: The value was “(2.51%)”.

Question: What about the “SAQ 6th question, Mostly dissatisfied: number of patients” value of the same molecule?
Answer: The value was 37.

Question: And the “SAQ 6th question, Mostly satisfied: % of patients” value?
Answer: Its value is “(51.09%)”.

Question: What about the “SAQ 6th question, Mostly satisfied: number of patients” value of the same molecule?
Answer: Its value is 752.

Question: What about the “SAQ 6th question, Partly satisfied: % of patients” value of the same molecule?
Answer: Its value is “(26.29%)”.

Question: And the “SAQ 6th question, Partly satisfied: number of patients” value?
Answer: The value was 387.

Question: And the “SAQ 7th question, Dissatisfied: % of patients” value?
Answer: The value was “(0.07%)”.

Question: And the “SAQ 7th question, Dissatisfied: number of patients” value?
Answer: Its value is 1.

Question: And the “SAQ 7th question, Highly satisfied: % of patients” value?
Answer: Its value is “(23.06%)”.

Question: And the “SAQ 7th question, Highly satisfied: number of patients” value?
Answer: The value was 339.

Question: What about the “SAQ 7th question, Mostly dissatisfied: % of patients” value of the same molecule?
Answer: Its value is “(1.84%)”.

Question: What about the “SAQ 7th question, Mostly dissatisfied: number of patients” value of the same molecule?
Answer: The value was 27.

Question: And the “SAQ 7th question, Mostly satisfied: % of patients” value?
Answer: The value was “(53.47%)”.

Question: What about the “SAQ 7th question, Mostly satisfied: number of patients” value of the same molecule?
Answer: Its value is 786.

Question: What about the “SAQ 7th question, Partly satisfied: % of patients” value of the same molecule?
Answer: Its value is “(21.56%)”.

Question: And the “SAQ 7th question, Partly satisfied: number of patients” value?
Answer: The value was 317.

Question: And the “SAQ Question 1-1 Mildly limited, number of patients” value?
Answer: The value was 22.

Question: What about the “SAQ Question 1-1 Mildly limited, percent of patients” value of the same molecule?
Answer: Its value is “(1.50%)”.

Question: And the “SAQ Question 1-1 Moderately limited, number of patients” value?
Answer: The value was 6.

Question: And the “SAQ Question 1-1 Moderately limited, percent of patients” value?
Answer: The value was “(0.41%)”.

Question: What about the “SAQ Question 1-1 Not limited, number of patients” value of the same molecule?
Answer: Its value is 1381.

Question: What about the “SAQ Question 1-1 Not limited, percent of patients” value of the same molecule?
Answer: Its value is “(93.95%)”.

Question: And the “SAQ Question 1-1 Other reasons, number of patients” value?
Answer: Its value is 3.

Question: And the “SAQ Question 1-1 Other reasons, percent of patients” value?
Answer: Its value is “(0.20%)”.

Question: What about the “SAQ Question 1-1 Severely limited, number of patients” value of the same molecule?
Answer: The value was 0.

Question: What about the “SAQ Question 1-1 Severely limited, percent of patients” value of the same molecule?
Answer: The value was “(0.00%)”.

Question: And the “SAQ Question 1-1 Slightly limited, number of patients” value?
Answer: Its value is 58.

Question: What about the “SAQ Question 1-1 Slightly limited, percent of patients” value of the same molecule?
Answer: The value was “(3.95%)”.

Question: What about the “SAQ Question 1-2 Mildly limited, number of patients” value of the same molecule?
Answer: Its value is 19.

Question: And the “SAQ Question 1-2 Mildly limited, percent of patients” value?
Answer: The value was “(1.29%)”.

Question: What about the “SAQ Question 1-2 Moderately limited, number of patients” value of the same molecule?
Answer: The value was 8.

Question: What about the “SAQ Question 1-2 Moderately limited, percent of patients” value of the same molecule?
Answer: Its value is “(0.54%)”.

Question: What about the “SAQ Question 1-2 Not limited, number of patients” value of the same molecule?
Answer: The value was 1353.

Question: What about the “SAQ Question 1-2 Not limited, percent of patients” value of the same molecule?
Answer: The value was “(92.04%)”.

Question: What about the “SAQ Question 1-2 Other reasons, number of patients” value of the same molecule?
Answer: The value was 6.

Question: And the “SAQ Question 1-2 Other reasons, percent of patients” value?
Answer: The value was “(0.41%)”.

Question: What about the “SAQ Question 1-2 Severely limited, number of patients” value of the same molecule?
Answer: The value was 0.

Question: What about the “SAQ Question 1-2 Severely limited, percent of patients” value of the same molecule?
Answer: The value was “(0.00%)”.

Question: And the “SAQ Question 1-2 Slightly limited, number of patients” value?
Answer: Its value is 84.

Question: And the “SAQ Question 1-2 Slightly limited, percent of patients” value?
Answer: The value was “(5.71%)”.

Question: And the “SAQ Question 1-6: Mildly limited, patients (%)” value?
Answer: Its value is “(17.92%)”.

Question: And the “SAQ Question 1-6: Moderately limited, patients (%)” value?
Answer: The value was “(13.89%)”.

Question: And the “SAQ Question 1-6: Not limited, patients (%)” value?
Answer: The value was “(30.92%)”.

Question: What about the “SAQ Question 1-6: Other reasons, patients (%)” value of the same molecule?
Answer: The value was “(0.96%)”.

Question: What about the “SAQ Question 1-6: Severely limited, patients (%)” value of the same molecule?
Answer: Its value is “(3.83%)”.

Question: What about the “SAQ Question 1-6: Slightly limited, patients (%)” value of the same molecule?
Answer: Its value is “(32.49%)”.

Question: And the “SAQ Question 1-7: Mildly limited, patients (%)” value?
Answer: Its value is “(23.81%)”.
